Test results reported in the supplement of paper PMC10307832.

What was measured:
Experiment in all cases: relative viability (nuclei count vs DMSO), 5 days (fraction); higher = more cells survive
[1] = compound: CC1=C(CC(=O)O)c2cc(F)ccc2/C1=C\c1ccc([S+](C)[O-])cc1 [Sulindac] + O=C(c1cc(Cc2n[nH]c(=O)c3ccccc23)ccc1F)N1CCN(C(=O)C2CC2)CC1 [Olaparib] (partner 8 µM)
In short: (§1)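 For relative viability, nuclei counts in treated wells were divided by those in vehicle wells. Lung cancer cell lines had been pin-tool dosed in 1536-well plates the day after seeding and cultured for 5 days, then fixed and stained in one step (final 0.05% Triton X-100, 1% formaldehyde, 1 ug/ml Hoechst) and imaged at 4×. Doses were one drug alone or a fixed anchor-drug dose plus five library-drug doses (not always all listed) in √10 steps, and values are duplicate-plate medians.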

[2] = compound: CC1=C(CC(=O)O)c2cc(F)ccc2/C1=C\c1ccc([S+](C)[O-])cc1 [Sulindac] + Cc1nc(NC(=O)N2CCC[C@H]2C(N)=O)sc1-c1ccnc(C(C)(C)C(F)(F)F)c1 [Alpelisib] (partner 2 µM)
In short: as §1

[3] = compound: CN[C@@H]1C[C@H]2O[C@@](C)([C@@H]1OC)n1c3ccccc3c3c4c(c5c6ccccc6n2c5c31)C(=O)NC4 [Staurosporine] + CS(=O)(=O)CCNCc1ccc(-c2ccc3ncnc(Nc4ccc(OCc5cccc(F)c5)c(Cl)c4)c3c2)o1 [Lapatinib] (partner 2 µM)
In short: as §1

[4] = compound: CN[C@@H]1C[C@H]2O[C@@](C)([C@@H]1OC)n1c3ccccc3c3c4c(c5c6ccccc6n2c5c31)C(=O)NC4 [Staurosporine] + CC(=O)Nc1cccc(-n2c(=O)n(C3CC3)c(=O)c3c(Nc4ccc(I)cc4F)n(C)c(=O)c(C)c32)c1 [Trametinib] (partner 0.02 µM)
In short: as §1

Cell Line	relative viability ([1]; first compound 0.08 µM)	relative viability ([1]; first compound 0.253 µM)	relative viability ([1]; first compound 0.8 µM)	relative viability ([1]; first compound 2.53 µM)	relative viability ([1]; first compound 8 µM)	relative viability ([2]; first compound 0.253 µM)	relative viability ([2]; first compound 0.8 µM)	relative viability ([2]; first compound 2.53 µM)	relative viability ([2]; first compound 8 µM)	relative viability ([3]; first compound 0.005 µM)	relative viability ([3]; first compound 0.01581 µM)	relative viability ([3]; first compound 0.05 µM)	relative viability ([3]; first compound 0.1581 µM)	relative viability ([3]; first compound 0.5 µM)	relative viability ([4]; first compound 0.005 µM)	relative viability ([4]; first compound 0.01581 µM)	relative viability ([4]; first compound 0.05 µM)	relative viability ([4]; first compound 0.1581 µM)	relative viability ([4]; first compound 0.5 µM)	relative viability ([2]; first compound 0.08 µM)
NCI-H1666	0.705	0.741	0.674	0.734	0.774	1.09	0.808	0.866	0.99	0.573	0.45	0.425	0.267	0.208	0.785	0.573	0.635	0.513	0.456	–
NCI-H1734	0.634	0.67	0.609	0.649	0.674	0.696	0.64	0.693	0.805	0.958	0.322	0.31	0.121	0.136	0.715	0.387	0.165	0.119	0.101	0.712
NCI-H1755	0.888	0.952	0.829	0.85	0.991	1.06	0.874	0.935	1	0.556	0.33	0.207	0.142	0.142	0.663	0.479	0.263	0.212	0.193	1.17
NCI-H1792	0.429	0.449	–	0.453	0.725	0.717	–	0.726	0.866	0.992	0.814	0.503	0.199	0.185	0.374	0.263	0.164	0.0813	0.0466	0.959
NCI-H1793	0.963	0.934	–	0.973	1.08	0.78	0.587	0.857	0.804	0.829	0.281	0.527	0.216	0.18	0.472	–	0.359	0.168	0.169	0.744
NCI-H1915	0.241	0.266	0.245	0.254	0.264	1.11	0.999	1.04	1.12	1.05	–	0.584	0.272	0.192	0.252	0.139	0.0978	0.0599	0.0612	1.05
NCI-H1944	0.433	0.404	0.302	0.438	0.42	0.883	0.754	0.853	0.856	0.849	–	0.566	0.435	0.304	0.373	0.331	0.356	0.252	0.195	0.745
NCI-H1975	0.998	0.763	0.65	0.841	0.974	0.757	–	0.674	0.694	0.572	0.232	0.227	0.13	0.0954	0.18	0.141	0.139	0.121	0.1	0.73
NCI-H1993	1.03	1.11	0.895	1.05	1.13	0.674	0.695	0.753	0.707	0.775	0.536	0.639	0.485	0.409	0.45	0.453	0.51	0.36	0.278	0.664
NCI-H2009	0.893	0.716	0.679	0.666	0.754	1.18	1.1	1.18	1.27	0.249	0.152	0.251	0.125	0.0882	0.204	0.143	0.149	0.087	0.0761	1.23
NCI-H2023	0.486	0.511	–	0.441	0.554	0.572	0.472	0.591	0.587	0.509	0.11	0.18	0.0948	0.0518	0.257	0.17	0.145	0.0801	0.0607	0.683
NCI-H2085	0.742	0.79	0.711	0.792	0.837	0.963	0.935	1.02	0.922	0.65	0.391	0.463	0.351	0.243	0.313	0.208	0.293	0.215	0.197	1.02
NCI-H2087	0.606	0.722	0.54	0.468	0.571	1	1.23	1.17	1.04	0.755	0.548	0.427	0.206	0.105	0.167	0.142	0.0865	0.0713	0.0829	1.16
NCI-H2126	1.12	0.923	0.87	0.951	1	0.737	0.669	0.721	0.807	0.805	0.571	0.505	0.336	0.356	0.592	0.373	0.375	0.339	0.345	0.723
NCI-H2170	0.658	0.576	0.493	0.591	0.626	0.904	0.613	0.835	0.912	0.289	0.236	0.258	0.197	0.193	–	–	0.904	0.63	0.379	1.03
NCI-H2228	0.941	0.804	0.499	0.637	0.516	0.862	0.725	0.825	0.753	0.88	0.49	0.346	0.137	0.115	0.332	0.089	0.169	0.0671	0.0687	0.67
